{"source": "patent US20080206220A1", "about": "“2031 Oxidoreductase” (F2G LTD, priority 2004, published 2008)", "key": {"Recombinant 2031 OR": {"tested_on": "Recombinant 2031 OR", "assay": "Oxidoreductase assay: NADPH oxidation monitored at 340 nm, 96-well", "type": "biochemical, Aspergillus fumigatus", "conditions": "500 μM substrate, 1 μg/200 μL 2031 OR, 120 μM NADPH", "experimental": "The assay for 2031 OR is based on methods described by Abramovitz & Massey (1976, J. Biol. Chem. 251: 5321-5326) and Stott et al. (1993, J. Biol. Chem. 268: 6097-6106) and is based upon the ability of this enzyme to oxidise the pyridine nucleotides NADH and/or NADPH. […] Conversion of NAD(P)H to NAD(P)^+ can therefore be monitored spectrophotometrically at a wavelength of 340 nm. A similar assay can be employed for all oxidoreductases that use NADH or NADPH as a cofactor.\nAssays were carried out in 96-well plates. To each well was added the following; Recombinant 2031 OR (10-1000 ng); 40 μl of 125-2500 μM NADPH; 1 μL 100 mM cyclohexeneone or other substrate, and the volume made up to 200 μL with 0.1 M potassium phosphate pH 7.0. Samples were incubated at room temperature and absorbance measurements were taken at 340 nm every 30 seconds for 10 min. The change in absorbance was expressed as nmoles NADPH oxidised, using the molar extinction coefficient of NADPH and NADH at 340 nm of 6270 (i.e., a 1M solution has an optical density of 6270 at this wavelength).\nThis is illustrated in FIG. 5. Final concentrations in the assay were as follows: 500 μM substrate, 1 μg/200 μL 2031 OR, 120 μM NADPH."}, "O=C1C=CCCC1": {"tested_on": "O=C1C=CCCC1", "assay": "purified protein, by the assay type", "conditions": "other: recombinant 2031 OR, 100 mM potassium phosphate buffer pH7.0; pH 7.0", "protocol": "Assay plates: Compounds to be tested were dissolved in 100% DMSO (polypropylene vessels), diluted in water and loaded into 384 square well polystyrene plates (10 μl/well). The final DMSO concentration in all assay wells was 5% v/v.\nβNADPH (tetrasodium salt)/2-cyclohexen-1-one reagent; Solutions of NADPH (1.2917 mM in 100 mM potassium phosphate buffer, pH7.0) and 2-cyclohexen-1-one (10 mM in 100 mM potassium phosphate buffer, pH7.0) were prepared on the day of the assay and combined in a ratio of 1 part of 2-cyclohexen-1-one solution to 9 parts NADPH solution. Final assay well concentrations for NADPH and 2-cyclohexen-1-one were 465 μM and 400 μM respectively.\nFor the iscreen, protein was typically diluted to 5 to 11.25 μg/ml in 100 mM potassium phosphate buffer, pH7.0.\nStop reagent: 0.4 M NaOH in water.\nTo give an increased signal, the screen was carried out using 2-cyclohexen-1-one at 4 times Km. […]\nAssays were carried out using Tecan Freedom, Tecan TeMo and PerkinElmer Minitrak robots together with a ThermoLabsystems multidrop 384 and a Tecan Safire automated plate reader. […] Plates were read at 340 nm on a Tecan Safire plate reader and data processed using ‘in-house’ created Excel spreadsheets to convert raw data into percent inhibition data. […]"}}}
{"compound": "O=C1C=CCCC1", "note": "[2-cyclohexen-1-one]", "values": [{"measurement": "Reduction of substrates by recombinant 2031 OR (substrate comparison, FIG. 5)", "setting": "Recombinant 2031 OR", "result": "better substrate than menadione, duroquinone or N-ethylmaleimide"}]}
{"compound": "2031 OR enzyme (Aspergillus fumigatus Af293)", "values": [{"measurement": "Km", "setting": "O=C1C=CCCC1", "result": 100, "unit": "µM"}]}
